Where a name gives a salt, the structure may show the parent alone. Read-outs that look alike come from different tables or passages of the source.
Tests used:
[1] = system: NO synthase; experiment: Assay Protocol for NOS activity: % inhibition at 50 uM (formation of L-[3H]citrulline from L-[3H]arginine); type: biochemical
Protocol: (§1) Assay Protocol for NOS activity
(§2) NOS activity is measured as the formation of L-[2,3,4,5-^3 H]Citrullinefrom L-[2,3,4,5-^3 H]Arginine. The incubation buffer (100 μL) contained; 100 mM TES, pH 7.5, 5 μM FAD, 5 μM FMN, 10 μM BH4, 0.5 mM NADPH, 0.5 mM DTT, 0.5 mg/mL BSA, 2 mM CaCl2, 10 μg/mL calmodulin (bovine), 1 μM L-Arg, 0.2 μCi L-[2,3,4,5-^3 H]Arg, and the inhibitor in aqueous DMSO (max. 5%). The reaction is initiated by addition of enzyme. Incubations are performed at room temperature for 30 minutes and stopped by the addition of an equal volume of quenching buffer consisting of 200 mM sodium citrate, pH 2.2, 0.02% sodium azide. Reaction products are separated by passing through a cation exchange resin and quantitated as cpm by scintillation counting.

[2] = target: ecNOS (Homo sapiens, UniProt P29474); experiment: NOS activity assay, ecNOS (L-[3H]citrulline formation); type: biochemical
Protocol: as §1, §2

[3] = target: ncNOS (Homo sapiens, UniProt P29475); experiment: biochemical; settings: read-out: IC50 ncNOS
[4] = target: iNOS (Homo sapiens, UniProt P35228); experiment: NOS activity assay, iNOS (L-[3H]citrulline formation); type: biochemical
Protocol: as §1, §2

ncNOS, sequence (P29475 whole entry): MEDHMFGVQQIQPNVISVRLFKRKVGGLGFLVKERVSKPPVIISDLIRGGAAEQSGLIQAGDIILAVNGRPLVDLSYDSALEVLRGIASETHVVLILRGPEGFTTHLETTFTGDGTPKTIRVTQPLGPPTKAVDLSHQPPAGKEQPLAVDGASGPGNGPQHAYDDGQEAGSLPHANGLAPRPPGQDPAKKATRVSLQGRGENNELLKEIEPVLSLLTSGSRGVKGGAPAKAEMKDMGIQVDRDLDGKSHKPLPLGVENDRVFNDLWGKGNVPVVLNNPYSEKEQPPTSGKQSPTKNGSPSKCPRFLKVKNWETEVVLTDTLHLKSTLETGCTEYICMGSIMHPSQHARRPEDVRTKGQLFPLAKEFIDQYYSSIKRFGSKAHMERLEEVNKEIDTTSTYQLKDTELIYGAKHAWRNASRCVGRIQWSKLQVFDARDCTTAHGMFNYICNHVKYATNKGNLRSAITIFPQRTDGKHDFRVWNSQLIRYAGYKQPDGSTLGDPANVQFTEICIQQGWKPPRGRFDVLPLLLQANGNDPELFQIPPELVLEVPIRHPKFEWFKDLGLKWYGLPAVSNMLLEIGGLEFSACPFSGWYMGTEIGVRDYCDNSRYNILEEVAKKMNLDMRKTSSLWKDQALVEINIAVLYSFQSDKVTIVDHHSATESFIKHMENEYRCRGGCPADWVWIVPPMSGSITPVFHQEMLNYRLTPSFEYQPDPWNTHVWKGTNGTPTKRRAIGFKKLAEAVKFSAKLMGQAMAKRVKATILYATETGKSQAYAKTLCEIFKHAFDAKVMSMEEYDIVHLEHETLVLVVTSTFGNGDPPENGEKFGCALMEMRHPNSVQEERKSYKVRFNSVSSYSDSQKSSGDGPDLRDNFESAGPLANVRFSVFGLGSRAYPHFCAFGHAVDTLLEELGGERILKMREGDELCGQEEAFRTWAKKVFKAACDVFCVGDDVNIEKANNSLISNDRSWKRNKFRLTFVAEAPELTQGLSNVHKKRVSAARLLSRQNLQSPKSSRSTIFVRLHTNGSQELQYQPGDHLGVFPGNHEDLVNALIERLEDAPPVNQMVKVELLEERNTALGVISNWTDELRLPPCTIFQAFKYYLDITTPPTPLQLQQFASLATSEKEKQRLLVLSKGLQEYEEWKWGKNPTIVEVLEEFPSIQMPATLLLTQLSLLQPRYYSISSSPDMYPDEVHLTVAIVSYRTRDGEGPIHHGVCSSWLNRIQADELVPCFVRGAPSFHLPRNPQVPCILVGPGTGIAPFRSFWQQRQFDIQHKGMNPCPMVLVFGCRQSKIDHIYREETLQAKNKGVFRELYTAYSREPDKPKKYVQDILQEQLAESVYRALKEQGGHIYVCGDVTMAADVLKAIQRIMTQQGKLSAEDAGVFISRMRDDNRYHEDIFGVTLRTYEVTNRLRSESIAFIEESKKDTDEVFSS

Row | Compound | IC50 ([2]; Table 5, read-out: IC50 ecNOS) [µM] | IC50 ([3]; Table 5) [µM] | IC50 ([4]; Table 5, read-out: IC50 iNOS) [µM] | further results
1 | N=C1CCCCCN1 | – | – | – | % inhibition ([1]; Table 3): 96%
2 | N=C1CCCCCCN1 | – | – | – | % inhibition ([1]; Table 3): 100%
3 | N=C1CCCCCCCN1 | – | – | – | % inhibition ([1]; Table 3): 100%
4 | CC1CCC(=N)N1 (centres unmarked) [Table 1: CH3, H, H] | – | – | – | % inhibition ([1]; Table 1): 98%
5 | N=C1CCCN1 [Table 1: H, H, H] | – | – | – | % inhibition ([1]; Table 1): 90%
6 | c1ccc(CNC2=NCCCCC2)cc1 [Table 2: CH2 -phenyl] | – | – | – | % inhibition ([1]; Table 2): 3%
7 | CCNC1=NCCCCC1 [Table 2: CH2 CH3] | – | – | – | % inhibition ([1]; Table 2): 55%
8 | CNC1=NCCCCC1 [Table 2: CH3] | – | – | – | % inhibition ([1]; Table 2): 3%
9 | C1CCN=C(NC2CCCCC2)CC1 [Table 2: cyclohexyl] | – | – | – | % inhibition ([1]; Table 2): 8%
10 | CCCC1CC(N)=NC1CC (centres unmarked) [Table 4: H, n-C3H7, C2H5, H, H, 2-Imino-5-ethyl-4-propylpyrrolidine hydrochloride] | – | – | – | IC50 ([2]; Table 4, read-out: IC50 ecNOS): > 50 µM; IC50 ([3]; Table 4): ≤ 50 µM; IC50 ([4]; Table 4, read-out: IC50 iNOS): ≤ 50 µM
11 | CCCC1CC(N)=NC1C (centres unmarked) [Table 4: H, n-C3H7, CH3, H, H, 2-Imino-5-methyl-4-propylpyrrolidine hydrochloride] | – | – | – | IC50 ([2]; Table 4, read-out: IC50 ecNOS): > 50 µM; IC50 ([3]; Table 4): ≤ 50 µM; IC50 ([4]; Table 4, read-out: IC50 iNOS): ≤ 50 µM
12 | CCCC1CN=C(N)C1 (centres unmarked) [Table 4: H, n-C3H7, H, H, H, 2-Imino-4-propylpyrrolidine hydrochloride] | – | – | – | IC50 ([2]; Table 4, read-out: IC50 ecNOS): > 50 µM; IC50 ([3]; Table 4): > 50 µM; IC50 ([4]; Table 4, read-out: IC50 iNOS): ≤ 50 µM
13 | N=C1NCCC1S (centres unmarked) [Table 4: SH, H, H, H, H] | – | – | – | IC50 ([2]; Table 4, read-out: IC50 ecNOS): ≤ 50 µM; IC50 ([3]; Table 4): ≤ 1 µM; IC50 ([4]; Table 4, read-out: IC50 iNOS): ≤ 50 µM
14 | NC1=NCCc2ccccc21 [Table 5: C, (CH)4, H, H, H, H] | ≤ 50 | ≤ 10 | ≤ 10 | –
15 | CC1CNC(=N)C(C)C1 (centres unmarked) [Table 5: CH2, CH3, H, CH3, H, H, H, 2-Imino-3,5-dimethylpiperidine hydrochloride] | ≤ 50 | ≤ 1 | ≤ 50 | –
16 | CC1CCCN=C1N (centres unmarked) [Table 5: CH2, CH3, H, H, H, H, H, 2-Imino-3-methylpiperidine hydrochloride] | – | ≤ 1 | – | IC50 [2]: ≤ 10 µM; IC50 [4]: ≤ 10 µM

Row | Compound | IC50 ([2]; Table 5, read-out: IC50 ecNOS) [µM] | IC50 ([3]; Table 5) [µM] | IC50 ([4]; Table 5, read-out: IC50 iNOS) [µM] | further results
17 | CC1(C)CCC(=N)NC1 [Table 5: CH2, H, H, (CH3)2, H, H, H, 2-Imino-5,5-dimethylpiperidine hydrochloride] | ≤ 50 | ≤ 10 | ≤ 10 | –
18 | NC1=Nc2ccccc2CC1 [Table 5: CH2, H, H, (CH)4, H, H, 3,4-Dihydro-2-aminoquinoline hydrochloride] | > 50 | ≤ 10 | ≤ 50 | –
19 | N=C1CCC(C(F)(F)F)CN1 (centres unmarked) [Table 5: CH2, H, H, CF3, H, H, H, 2-Imino-5-trifluoro-piperidine] | > 50 | > 50 | ≤ 10 | –
20 | CCCOC1CCC(=N)NC1 (centres unmarked) [Table 5: CH2, H, H, O-n-C3H7, H, H, H, 2-Imino-5-n-propyloxy-piperidine, acetic acid salt] | ≤ 10 | ≤ 10 | ≤ 1 | –
21 | CC1C(=N)NCC2CCCC21 (stereo not drawn) [Table 5: CH, CH3, (CH2)3, H, H, H, 4-Imino-5-cis-methyl-3-azabicyclo[4.3.0]nonane, hydrochloride] | > 50 | ≤ 10 | ≤ 10 | –
22 | CO[C@@H]1CNC(=N)C[C@@H]1C [Table 5: CH, H, (S)CH3, (S)OCH3, H, H, H, hydrochloride] | ≤ 1 | ≤ 1 | ≤ 1 | –
23 | C[C@H]1CC(=N)NC[C@H]1O [Table 5: CH, H, (S)CH3, (S)OH, H, H, H, 2-Imino-5(S)-hydroxy-4(S)-methyl-piperidine, hydrochloride] | ≤ 10 | ≤ 1 | ≤ 1 | –
24 | CC1CNC(=N)CC1C (centres unmarked) [Table 5: CH, H, CH3, CH3, H, H, H] | ≤ 1 | ≤ 1 | ≤ 1 | –
25 | CCCC1CCN=C(N)C1 (centres unmarked) [Table 5: CH, H, n-C3H7, H, H, H, H, 2-Imino-4-propylpiperidine hydrochloride] | > 50 | > 50 | ≤ 10 | –
26 | CC(C)(C)OC(=O)N1CCNC(=N)C1 [Table 5: N, H, CO2-t-C4H9, H, H, H, H, 4-t-Butoxycarbonyl-2-iminopiperazine hydrochloride] | > 50 | > 50 | ≤ 50 | –
27 | N=C1CNC2CCCCC2N1 (centres unmarked) [Table 5: N, H, H, (CH2)4, H, H] | – | ≤ 50 | – | IC50 [2]: > 50 µM; IC50 [4]: ≤ 10 µM
28 | N=C1CNCCN1 [Table 5: N, H, H, H, H, H, H, 2-Iminopiperazine hydrochloride] | > 50 | ≤ 50 | ≤ 50 | –
29 | N=C1CSCCN1 [Table 5: S, H, --, H, H, H, H, 3-Iminothiomorpholine hydrochloride] | ≤ 10 | ≤ 1 | ≤ 1 | –
30 | N=C1CCCN1 [drawing 15] | – | – | – | % inhibition ([1]; Table 3): 90%
31 | N=C1CCCCN1 [drawing 16] | – | – | – | % inhibition ([1]; Table 3): 100%

From patent US5629322A, “Cyclic amidine analogs as inhibitors of nitric oxide synthase” (priority 1995, dated 1997)
